Data on 7 molecules can be found in ChEMBL document CHEMBL2074575, “Human organic anion transporting polypeptide-C (SLC21A6) is a major determinant of rifampin-mediated pregnane X receptor activation” (J Pharmacol Exp Ther, 2003).

Assay type in all cases: functional, cell-based
The target in series [1] is T1, Solute carrier organic anion transporter family member 1B1 (Homo sapiens, UniProt Q9Y6L6).
T1 sequence (Q9Y6L6 whole entry): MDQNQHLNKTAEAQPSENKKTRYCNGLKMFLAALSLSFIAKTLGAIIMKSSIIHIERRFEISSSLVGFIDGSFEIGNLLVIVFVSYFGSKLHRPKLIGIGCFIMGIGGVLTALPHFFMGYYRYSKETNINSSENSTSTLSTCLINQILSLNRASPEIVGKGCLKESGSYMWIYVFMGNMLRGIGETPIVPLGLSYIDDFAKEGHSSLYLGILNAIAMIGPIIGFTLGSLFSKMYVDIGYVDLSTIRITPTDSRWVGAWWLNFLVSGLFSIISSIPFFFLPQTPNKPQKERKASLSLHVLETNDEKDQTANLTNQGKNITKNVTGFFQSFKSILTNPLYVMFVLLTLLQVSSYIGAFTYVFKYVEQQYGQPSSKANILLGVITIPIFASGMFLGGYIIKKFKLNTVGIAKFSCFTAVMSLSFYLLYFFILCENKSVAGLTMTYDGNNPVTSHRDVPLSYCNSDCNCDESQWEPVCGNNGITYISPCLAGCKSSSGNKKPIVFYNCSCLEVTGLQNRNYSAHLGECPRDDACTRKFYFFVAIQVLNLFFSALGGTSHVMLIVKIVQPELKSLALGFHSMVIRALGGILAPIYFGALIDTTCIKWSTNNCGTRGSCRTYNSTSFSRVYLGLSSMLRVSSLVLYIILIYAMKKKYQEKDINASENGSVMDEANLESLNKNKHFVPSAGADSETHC
The experiment in a line: TP_TRANSPORTER: inhibition of E217betaG uptake (E217betaG: 0.5 uM, BSP: 10 uM) in OATP-C-expressing HeLa cells.

Series [2] deals with T1, Solute carrier organic anion transporter family member 1B1. The series can be described thus: TP_TRANSPORTER: inhibition of E217betaG uptake (E217betaG: 0.5 uM, Saquinavir: 100 uM) in OATP-C-expressing HeLa cells.
For series [3] the target is unchanged. The experiment in a line: TP_TRANSPORTER: inhibition of E217betaG uptake (E217betaG: 0.5 uM, Hyperforin: 10 uM) in OATP-C-expressing HeLa cells.
The target is the same in series [4]. The experiment in a line: TP_TRANSPORTER: inhibition of E217betaG uptake (E217betaG: 0.5 uM, Indinavir: 10 uM) in OATP-C-expressing HeLa cells.
For series [5] the target is unchanged. The experiment in a line: TP_TRANSPORTER: inhibition of E217betaG uptake (E217betaG: 0.5 uM, Nelfinavir: 10 uM) in OATP-C-expressing HeLa cells.
Series [6] shares this target. The experiment in a line: TP_TRANSPORTER: inhibition of E217betaG uptake (E217betaG: 0.5 uM, Rifampicin: 10 uM) in OATP-C-expressing HeLa cells.
Substrate in series [7]: CO[C@H]1/C=C/O[C@@]2(C)Oc3c(C)c(O)c4c(O)c(c(/C=N/N5CCN(C)CC5)c(O)c4c3C2=O)NC(=O)/C(C)=C\C=C\[C@H](C)[C@H](O)[C@@H](C)[C@@H](O)[C@@H](C)[C@H](OC(C)=O)[C@@H]1C
The series can be described thus: TP_TRANSPORTER: uptake in OATP-C-expressing HeLa cells.

On to `O=C1OC(c2ccc(O)c(S(=O)(=O)[O-])c2)(c2ccc(O)c(S(=O)(=O)[O-])c2)c2c(Br)c(Br)c(Br)c(Br)c21.[Na+].[Na+]` [SULFOBROMOPHTHALEIN SODIUM], for which, in series [1], the Activity result was “inhibitor [(at a rough estimate) <5 % of control]”.
On to `CC(C)(C)NC(=O)[C@@H]1C[C@@H]2CCCC[C@@H]2CN1C[C@@H](O)[C@H](Cc1ccccc1)NC(=O)[C@H](CC(N)=O)NC(=O)c1ccc2ccccc2n1`, for which, in series [2], the Activity result was “inhibitor [(at a rough estimate) 10 % of control]”.
In the case of `CC(C)=CCC[C@]1(C)[C@@H](CC=C(C)C)C[C@]2(CC=C(C)C)C(=O)C(CC=C(C)C)=C(O)[C@@]1(C(=O)C(C)C)C2=O`, the Activity entry in series [3] is “inhibitor [(at a rough estimate) 10 % of control]”.
Take `CC(C)(C)NC(=O)[C@@H]1CN(Cc2cccnc2)CCN1C[C@@H](O)C[C@@H](Cc1ccccc1)C(=O)N[C@H]1c2ccccc2C[C@H]1O.O`: the Activity entry in series [4] is “inhibitor [(at a rough estimate) 35 % of control]”.
Regarding `Cc1c(O)cccc1C(=O)N[C@@H](CSc1ccccc1)[C@H](O)CN1C[C@H]2CCCC[C@H]2C[C@H]1C(=O)NC(C)(C)C`, the Activity entry in series [5] was “inhibitor [(at a rough estimate) 15 % of control]”.
On to `CO[C@H]1/C=C/O[C@@]2(C)Oc3c(C)c(O)c4c(O)c(c(/C=N/N5CCN(C)CC5)c(O)c4c3C2=O)NC(=O)/C(C)=C\C=C\[C@H](C)[C@H](O)[C@@H](C)[C@@H](O)[C@@H](C)[C@H](OC(C)=O)[C@@H]1C` [RIFAMPIN], for which, in series [6], the Activity entry is “inhibitor [(at a rough estimate) 10 % of control]”.

B1: Solute carrier organic anion transporter family member 1B1 (Homo sapiens) (protein)
chain: T1 sequence (Q9Y6L6 whole entry)
In the case of B1, the Km in series [7] is 1.5 µM.
